Reference: PubChem BioAssay (NCI)
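Cultured in 96-well plates, cells were exposed to test compound for 48 hours across five concentrations. GI50 marks 50% less growth. TGI denotes the concentration required for complete inhibition of growth.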 Where a SMILES comes first, the peptide text is derived from it. The star is where a group is joined. Palmitoyl = CCCCCCCCCCCCCCCC(=O)*

Columns and labels:
Assay in all cases: NCI-60 cell line screen, 48 h
RXF 393 renal = test system: RXF 393 renal
OVCAR-4 ovarian = test system: OVCAR-4 ovarian
SK-OV-3 ovarian = test system: SK-OV-3 ovarian
A549 NSCLC = test system: A549 NSCLC
EKVX NSCLC = test system: EKVX NSCLC
SK-MEL-2 melanoma = test system: SK-MEL-2 melanoma
RPMI-8226 leukemia = test system: RPMI-8226 leukemia
HOP-62 NSCLC = test system: HOP-62 NSCLC
CCRF-CEM leukemia = test system: CCRF-CEM leukemia
MOLT-4 leukemia = test system: MOLT-4 leukemia

For `Cc1c(-c2ccccc2)[nH]c2cc(Cl)ccc2c1=O`, the TGI (RXF 393 renal) was 79.5 µM, the TGI (OVCAR-4 ovarian) was 66.3 µM and the TGI (SK-OV-3 ovarian) was > 100 µM. For the same compound, the TGI (A549 NSCLC) was > 100 µM, the TGI (EKVX NSCLC) was > 100 µM and the TGI (SK-MEL-2 melanoma) was > 100 µM. The TGI (RPMI-8226 leukemia) was > 100 µM, the TGI (HOP-62 NSCLC) was 60 µM and the TGI (CCRF-CEM leukemia) was > 100 µM. For the same compound, the TGI (MOLT-4 leukemia) was > 100 µM.

`COc1cc(C(C)O)c[n+](Cc2ccccc2)c1` (centres undefined) was tested, and the TGI (RXF 393 renal) was > 100 µM, the TGI (OVCAR-4 ovarian) was > 100 µM and the TGI (SK-OV-3 ovarian) was > 100 µM. The TGI (A549 NSCLC) was > 100 µM, the TGI (EKVX NSCLC) was > 100 µM and the TGI (SK-MEL-2 melanoma) was > 100 µM. For the same compound, the TGI (RPMI-8226 leukemia) was > 100 µM, the TGI (HOP-62 NSCLC) was > 100 µM and the TGI (CCRF-CEM leukemia) was > 100 µM. For the same compound, the TGI (MOLT-4 leukemia) was > 100 µM.

In the case of `CON(C)c1nc(N(C)OC)nc(N(C)OC)n1`, the TGI (RXF 393 renal) is reported as > 10 µM, the TGI (OVCAR-4 ovarian) is reported as > 10 µM and the TGI (SK-OV-3 ovarian) is reported as > 10 µM. For the same compound, the TGI (A549 NSCLC) was > 10 µM, the TGI (EKVX NSCLC) was > 10 µM and the TGI (SK-MEL-2 melanoma) was > 10 µM. For the same compound, the TGI (RPMI-8226 leukemia) was > 10 µM, the TGI (HOP-62 NSCLC) was > 10 µM and the TGI (CCRF-CEM leukemia) was > 10 µM. For the same compound, the TGI (MOLT-4 leukemia) was > 10 µM.

In the case of `CC(N)Cc1ccc(Cl)c(Cl)c1` (centres undefined), the TGI (RXF 393 renal) is reported as 77.2 µM, the TGI (OVCAR-4 ovarian) is reported as > 100 µM and the TGI (SK-OV-3 ovarian) is reported as > 100 µM. The TGI (A549 NSCLC) was > 100 µM, the TGI (EKVX NSCLC) was > 100 µM and the TGI (SK-MEL-2 melanoma) was 37.6 µM. For the same compound, the TGI (RPMI-8226 leukemia) was > 84.6 µM, the TGI (HOP-62 NSCLC) was > 100 µM and the TGI (CCRF-CEM leukemia) was > 78.1 µM. For the same compound, the TGI (MOLT-4 leukemia) was 71.2 µM.

For `COC(=O)c1c(C)n([O-])c2cc(Cl)c(Cl)cc2[n+]1=O`, the TGI (RXF 393 renal) was > 100 µM, the TGI (OVCAR-4 ovarian) was 52.5 µM and the TGI (SK-OV-3 ovarian) was 40 µM. The TGI (A549 NSCLC) was 28.6 µM, the TGI (EKVX NSCLC) was 67.7 µM and the TGI (SK-MEL-2 melanoma) was 82.1 µM. The TGI (RPMI-8226 leukemia) was 19.3 µM, the TGI (HOP-62 NSCLC) was > 100 µM and the TGI (CCRF-CEM leukemia) was 42.3 µM. For the same compound, the TGI (MOLT-4 leukemia) was 84.5 µM.

`CCN1CCC(O)(/C=C/c2ccccc2C)C(C(=O)/C=C/c2ccccc2C)C1` (centres undefined) gave a TGI (RXF 393 renal) of 3.67 µM, a TGI (OVCAR-4 ovarian) of 12.5 µM and a TGI (SK-OV-3 ovarian) of 21 µM. The TGI (A549 NSCLC) was 12.8 µM, the TGI (EKVX NSCLC) was 16.8 µM and the TGI (SK-MEL-2 melanoma) was 5.57 µM. The TGI (HOP-62 NSCLC) was 3.74 µM, the TGI (CCRF-CEM leukemia) was 4.85 µM and the TGI (MOLT-4 leukemia) was 6.12 µM.

For `CN1C(c2ccccc2)CC(=O)C(N)C1c1ccccc1` (centres undefined), the TGI (RXF 393 renal) was > 31.6 µM, the TGI (OVCAR-4 ovarian) was > 100 µM and the TGI (SK-OV-3 ovarian) was > 100 µM. For the same compound, the TGI (A549 NSCLC) was > 100 µM, the TGI (EKVX NSCLC) was > 80.4 µM and the TGI (SK-MEL-2 melanoma) was 41.1 µM. The TGI (RPMI-8226 leukemia) was 44.1 µM, the TGI (HOP-62 NSCLC) was > 100 µM and the TGI (CCRF-CEM leukemia) was 66 µM. The TGI (MOLT-4 leukemia) was > 58.8 µM.

For `O=C(N/N=C/c1ccc([N+](=O)[O-])cc1)Nc1ccc(C(=O)O)cc1`, the TGI (RXF 393 renal) was > 100 µM, the TGI (OVCAR-4 ovarian) was > 100 µM and the TGI (SK-OV-3 ovarian) was 70.8 µM. The TGI (A549 NSCLC) was > 100 µM, the TGI (EKVX NSCLC) was 77 µM and the TGI (SK-MEL-2 melanoma) was 83.9 µM. For the same compound, the TGI (RPMI-8226 leukemia) was > 100 µM, the TGI (HOP-62 NSCLC) was 75 µM and the TGI (CCRF-CEM leukemia) was > 100 µM. For the same compound, the TGI (MOLT-4 leukemia) was > 100 µM.

For `c1cnc2c(c1)ccc1cccnc12`, the TGI (RXF 393 renal) was > 100 µM, the TGI (OVCAR-4 ovarian) was > 88.4 µM and the TGI (SK-OV-3 ovarian) was > 100 µM. The TGI (A549 NSCLC) was > 100 µM, the TGI (EKVX NSCLC) was > 78.6 µM and the TGI (SK-MEL-2 melanoma) was > 100 µM. For the same compound, the TGI (RPMI-8226 leukemia) was 7.89 µM, the TGI (HOP-62 NSCLC) was > 100 µM and the TGI (CCRF-CEM leukemia) was 5.5 µM. The TGI (MOLT-4 leukemia) was 8.37 µM.

In the case of `COC(=O)/C=C(\CC(=O)OC)n1nnnc1[C@@H]1C[C@H](COC(c2ccccc2)(c2ccccc2)c2ccccc2)[C@H]2OC(C)(C)O[C@H]21`, the TGI (RXF 393 renal) is reported as > 100 µM, the TGI (OVCAR-4 ovarian) is reported as > 100 µM and the TGI (SK-OV-3 ovarian) is reported as > 100 µM. For the same compound, the TGI (A549 NSCLC) was > 100 µM, the TGI (EKVX NSCLC) was > 100 µM and the TGI (SK-MEL-2 melanoma) was > 100 µM. The TGI (RPMI-8226 leukemia) was > 100 µM, the TGI (HOP-62 NSCLC) was > 100 µM and the TGI (CCRF-CEM leukemia) was > 100 µM. The TGI (MOLT-4 leukemia) was > 100 µM.

`CCCCCCCCCCCCCCCC(=O)N1CCCC1C(=O)NCC(=O)NC(Cc1ccccc1)C(=O)NC(C)C(=O)NC(CO)C(=O)NC(Cc1ccc(O)cc1)C(=O)NC(CCCCN)C(=O)NC(CC(C)C)C(=O)NC(CCCN=C(N)N)C(=O)N1CCCC1C(=O)NCC(N)=O` (centres undefined) (Palmitoyl-PGFASYKLRPG-NH2; configuration not given here) was tested, and the GI50 (RXF 393 renal) was 24.7 µM, the TGI (RXF 393 renal) was 53.5 µM and the GI50 (OVCAR-4 ovarian) was 33.8 µM. It also gave a TGI (OVCAR-4 ovarian) of 92.6 µM, a GI50 (SK-OV-3 ovarian) of 12.8 µM and a TGI (SK-OV-3 ovarian) of 28.7 µM. The GI50 (A549 NSCLC) was 21.3 µM, the TGI (A549 NSCLC) was 40.8 µM and the GI50 (EKVX NSCLC) was 20.1 µM. The TGI (EKVX NSCLC) was 52.1 µM, the GI50 (SK-MEL-2 melanoma) was 34.6 µM and the TGI (SK-MEL-2 melanoma) was > 100 µM. The GI50 (RPMI-8226 leukemia) was 4.36 µM, the TGI (RPMI-8226 leukemia) was 16.4 µM and the GI50 (HOP-62 NSCLC) was 21.1 µM. For the same compound, the TGI (HOP-62 NSCLC) was 46 µM, the GI50 (CCRF-CEM leukemia) was 16.5 µM and the TGI (CCRF-CEM leukemia) was 30.1 µM. The GI50 (MOLT-4 leukemia) was 17.6 µM and the TGI (MOLT-4 leukemia) was 31.4 µM.

For `Cc1ccc(-c2nc(N/N=C/C=C/c3ccccc3)c3ccccc3n2)cc1`, the TGI (RXF 393 renal) was 99.6 µM, the TGI (OVCAR-4 ovarian) was > 100 µM and the TGI (SK-OV-3 ovarian) was > 100 µM. The TGI (A549 NSCLC) was > 100 µM, the TGI (EKVX NSCLC) was 51.8 µM and the TGI (SK-MEL-2 melanoma) was 99.2 µM. For the same compound, the TGI (RPMI-8226 leukemia) was > 100 µM, the TGI (HOP-62 NSCLC) was > 100 µM and the TGI (CCRF-CEM leukemia) was > 100 µM. The TGI (MOLT-4 leukemia) was > 100 µM.

In the case of `C=C(C)C1Cc2c(c3ccccc3n(C)c2=O)O1` (centres undefined), the TGI (SK-OV-3 ovarian) is reported as > 100 µM, the TGI (EKVX NSCLC) is reported as > 100 µM and the TGI (SK-MEL-2 melanoma) is reported as > 100 µM. For the same compound, the TGI (RPMI-8226 leukemia) was > 100 µM, the TGI (CCRF-CEM leukemia) was > 100 µM and the TGI (MOLT-4 leukemia) was > 100 µM.

`c1ccc(-c2nc(N3CCNCC3)c3oc(-c4ccccc4)nc3n2)cc1` was tested, and the GI50 (RXF 393 renal) was 1.54 µM, the TGI (RXF 393 renal) was 3.07 µM and the GI50 (OVCAR-4 ovarian) was 1.68 µM. It also gave a TGI (OVCAR-4 ovarian) of 3.19 µM, a GI50 (SK-OV-3 ovarian) of 1.88 µM and a TGI (SK-OV-3 ovarian) of 3.8 µM. It also gave a GI50 (SK-MEL-2 melanoma) of 2.31 µM, a TGI (SK-MEL-2 melanoma) of 5.42 µM and a GI50 (RPMI-8226 leukemia) of 2.03 µM. It also gave a TGI (RPMI-8226 leukemia) of 5.16 µM, a GI50 (HOP-62 NSCLC) of 2.26 µM and a TGI (HOP-62 NSCLC) of 4.81 µM. For the same compound, the GI50 (CCRF-CEM leukemia) was 1.63 µM and the TGI (CCRF-CEM leukemia) was 4.08 µM.
